1 compound from article PMC4165196, “Curcumin, a Natural Antioxidant, Acts as a Noncompetitive Inhibitor of Human RNase L in Presence of Its Cofactor 2-5A In Vitro” (BioMed Research International, 2014) can be followed below.

Broadly, the Kd is the constant that tells how readily two partners part at equilibrium.

SMILES strings stand for the structures.

This test deals with T1, human RNase L (Homo sapiens, UniProt Q05823).
T1 construct: gene RNASEL; full-length (741 a.a.) recombinant human RNase L, GST-RNase L fusion protein
T1 sequence (Q05823 1-741): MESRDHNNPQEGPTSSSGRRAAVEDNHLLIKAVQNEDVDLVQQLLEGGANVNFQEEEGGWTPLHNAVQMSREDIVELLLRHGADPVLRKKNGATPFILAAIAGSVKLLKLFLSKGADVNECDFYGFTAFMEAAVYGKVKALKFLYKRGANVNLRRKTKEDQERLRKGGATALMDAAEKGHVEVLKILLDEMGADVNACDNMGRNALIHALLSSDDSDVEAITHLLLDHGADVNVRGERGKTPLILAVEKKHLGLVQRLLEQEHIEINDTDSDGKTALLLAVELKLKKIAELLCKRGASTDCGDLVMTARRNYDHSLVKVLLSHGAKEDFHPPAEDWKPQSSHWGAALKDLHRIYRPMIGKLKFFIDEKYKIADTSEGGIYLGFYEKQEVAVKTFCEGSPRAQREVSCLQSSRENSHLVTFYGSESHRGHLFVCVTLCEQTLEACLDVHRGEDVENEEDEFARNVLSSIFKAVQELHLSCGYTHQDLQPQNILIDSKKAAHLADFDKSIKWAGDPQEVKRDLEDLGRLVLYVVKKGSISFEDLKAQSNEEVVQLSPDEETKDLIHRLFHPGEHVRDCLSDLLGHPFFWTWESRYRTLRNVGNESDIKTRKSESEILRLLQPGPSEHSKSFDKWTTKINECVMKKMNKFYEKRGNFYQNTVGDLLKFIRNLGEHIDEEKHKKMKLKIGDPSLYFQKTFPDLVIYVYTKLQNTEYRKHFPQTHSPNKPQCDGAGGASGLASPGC
The test can be described thus: intrinsic fluorescence quenching titration (Hill fit); also noncompetitive inhibition of purified GST-RNase L RNA degradation with […]-5A, Ki […], biphasic dose response. It counts as binding.

`COc1cc(/C=C/C(=O)CC(=O)/C=C/c2ccc(O)c(OC)c2)ccc1O` [curcumin, 1,7-bis-[4 hydroxy-3-methoxy]-1,6 heptadiene-3,5-dione] gave a Kd of 397 ± 18 nM.
